These results are taken from PubChem BioAssay AID256 (DTP/NCI, 2004).

The test relates to CD2F1 mice, L1210 leukemia ip, survival T/C. Description: NCI In Vivo Anticancer Drug Screen. Data for tumor model L1210 Leukemia (intraperitoneal) in CD2F1 (CDF1) mice. Particulars: higher = longer survival. The procedure:
The antitumor activity of compounds was measured in mice bearing transplantable tumors. Survival or tumor size were measured and the results are expressed as the measurement made in the treated group (T) divided by the measurement made in the vehicle treated control group (C). The tumor model used in this assay is L1210 Leukemia (intraperitoneal) in CD2F1 (CDF1) mice

The mark [1] stands for this setting: endpoint: mean survival time, dose: 100.0 mg/kg/injection, schedule: Q01DX009 (ip), vehicle: saline with Tween-80.
[2] abbreviates: endpoint: mean survival time, dose: 200.0 mg/kg/injection, schedule: Q01DX009 (ip), vehicle: saline with Tween-80.
Setting [3] is: endpoint: mean survival time, dose: 400.0 mg/kg/injection, schedule: Q01DX009 (ip), vehicle: saline with Tween-80.
Where [4] appears, read: endpoint: mean survival time, dose: 100.0 mg/kg/injection, schedule: Q04DX003 (ip), vehicle: saline with Tween-80.
[5] abbreviates: endpoint: mean survival time, dose: 200.0 mg/kg/injection, schedule: Q04DX003 (ip), vehicle: saline with Tween-80.
The mark [6] stands for this setting: endpoint: mean survival time, dose: 400.0 mg/kg/injection, schedule: Q04DX003 (ip), vehicle: saline with Tween-80.
Setting [7] is: endpoint: mean survival time, dose: 50.0 mg/kg/injection, schedule: Q01DX009 (ip), vehicle: saline.
[8] abbreviates: endpoint: mean survival time, dose: 100.0 mg/kg/injection, schedule: Q01DX009 (ip), vehicle: saline.
The mark [9] stands for this setting: endpoint: mean survival time, dose: 100.0 mg/kg/injection, schedule: Q04DX003 (ip), vehicle: saline.
Where [10] appears, read: endpoint: mean survival time, dose: 200.0 mg/kg/injection, schedule: Q01DX009 (ip), vehicle: saline.
[11] abbreviates: endpoint: mean survival time, dose: 200.0 mg/kg/injection, schedule: Q04DX003 (ip), vehicle: saline.

Values joined by “and” are separate entries in the source; they are usually repeats but may differ in a detail not shown here. Equal entries are not always repeated. Toxic doses and inconclusive results are not listed.

Regarding `CC(=O)OC(CC(=O)CC(O)(C(F)(F)F)C(F)(F)F)(C(F)(F)F)C(F)(F)F`, the T/C is, setting by setting: (endpoint: mean survival time, dose: 6.25 mg/kg/injection, schedule: Q04DX003 (ip), vehicle: saline) 95 % of control; (endpoint: mean survival time, dose: 12.5 mg/kg/injection, schedule: Q04DX003 (ip), vehicle: saline) 98 % of control; (endpoint: mean survival time, dose: 25.0 mg/kg/injection, schedule: Q04DX003 (ip), vehicle: saline) 96 % of control.
On to `CCCCCCC[CH2][Sn]([CH2]C)([CH2]C)[O]C(C)=O`, for which the T/C reads like this: (endpoint: mean survival time, dose: 0.25 mg/kg/injection, schedule: Q04DX003 (ip), vehicle: saline) 106 % of control; (endpoint: mean survival time, dose: 0.5 mg/kg/injection, schedule: Q04DX003 (ip), vehicle: saline) 101 % of control; (endpoint: mean survival time, dose: 0.63 mg/kg/injection, schedule: Q04DX003 (ip), vehicle: saline) 93 % of control; (endpoint: mean survival time, dose: 1.0 mg/kg/injection, schedule: Q04DX003 (ip), vehicle: saline) 103 % of control; (endpoint: mean survival time, dose: 1.25 mg/kg/injection, schedule: Q04DX003 (ip), vehicle: saline) 102 % of control.
Regarding `CCC12CCCN3CCc4c(n(c5ccccc45)C(O)(C(=O)OC)C1)C32` (stereo unspecified), the T/C is 108 % of control (endpoint: mean survival time, dose: 5.0 mg/kg/injection, schedule: Q01DX001 (ip), vehicle: saline); 101 % of control (endpoint: mean survival time, dose: 10.0 mg/kg/injection, schedule: Q01DX001 (ip), vehicle: saline); 102 % of control (endpoint: mean survival time, dose: 20.0 mg/kg/injection, schedule: Q01DX001 (ip), vehicle: saline); 101 % of control (endpoint: mean survival time, dose: 40.0 mg/kg/injection, schedule: Q01DX001 (ip), vehicle: saline).
For `N#Cc1nn(C2OC(COC(=O)c3ccccc3)C(OC(=O)c3ccccc3)C2OC(=O)c2ccccc2)c2nc[nH]c(=O)c12` (stereo unspecified), the T/C runs as follows: (endpoint: median survival time, dose: 12.5 mg/kg/injection, schedule: Q01DX005 (ip), vehicle: saline with Tween-80) 107 % of control; (endpoint: median survival time, dose: 25.0 mg/kg/injection, schedule: Q01DX005 (ip), vehicle: saline with Tween-80) 103 % of control; (endpoint: median survival time, dose: 50.0 mg/kg/injection, schedule: Q01DX005 (ip), vehicle: saline with Tween-80) 97 % of control; (endpoint: median survival time, dose: 100.0 mg/kg/injection, schedule: Q01DX005 (ip), vehicle: saline with Tween-80) 97 % of control; (endpoint: median survival time, dose: 200.0 mg/kg/injection, schedule: Q01DX005 (ip), vehicle: saline with Tween-80) 119 % of control.
As to `COC(=O)C1=C(C)NC(=O)NC1c1ccccc1` (stereo unspecified), the T/C runs as follows: under setting [1], 95 % of control; under setting [2], 97 % of control; under setting [3], 97 % of control.
Take `NCC[Se][Se]CCN`: the T/C is, setting by setting: (endpoint: median survival time, dose: 1.56 mg/kg/injection, schedule: Q01DX009 (ip), vehicle: suspension in saline) 98 % of control; (endpoint: median survival time, dose: 3.13 mg/kg/injection, schedule: Q01DX009 (ip), vehicle: suspension in saline) 105 % of control; (endpoint: median survival time, dose: 6.25 mg/kg/injection, schedule: Q01DX009 (ip), vehicle: suspension in saline) 108 % of control.
With `O=NN(CCCl)C(=O)NC1[C@H](O)CCC[C@@H]1O` (stereo partly specified), the T/C (endpoint: median survival time, dose: 0.63 mg/kg/injection, schedule: Q01DX009 (ip), vehicle: saline) is 167 % of control; the T/C (endpoint: median survival time, dose: 1.25 mg/kg/injection, schedule: Q01DX009 (ip), vehicle: saline) is 229 % of control and 108 % of control; the T/C (endpoint: median survival time, dose: 2.5 mg/kg/injection, schedule: Q01DX009 (ip), vehicle: saline) was 348 % of control and 365 % of control; the T/C (endpoint: median survival time, dose: 5.0 mg/kg/injection, schedule: Q01DX009 (ip), vehicle: saline) was 348 % of control and 365 % of control; the T/C (endpoint: median survival time, dose: 10.0 mg/kg/injection, schedule: Q01DX009 (ip), vehicle: saline) is 195 % of control and 218 % of control; the T/C (endpoint: median survival time, dose: 20.0 mg/kg/injection, schedule: Q01DX009 (ip), vehicle: saline) was 93 % of control and 101 % of control.
In the case of `CCCCC(C(=O)OCC)C(=O)c1ccccc1` (stereo unspecified), the T/C under setting [4] was 96 % of control, the T/C under setting [5] is 94 % of control and the T/C under setting [6] is 97 % of control.
With `CN(C)CCCCO`, the T/C is, setting by setting: under setting [7], 98 % of control; under setting [8], 98 % of control; under setting [9], 95 % of control; under setting [10], 97 % of control; under setting [11], 96 % of control.
Turning to `O=C1CC(=Nc2ccc([N+](=O)[O-])cc2)NN1c1c(Cl)cc(Cl)cc1Cl`, the T/C runs as follows: under setting [4], 101 % of control; under setting [5], 97 % of control; under setting [6], 97 % of control.
`CCC1(OC(=O)CN)C(=O)OCc2c1cc1n(c2=O)Cc2cc3ccccc3nc2-1` (stereo unspecified): the T/C was 117 % of control and 122 % of control (endpoint: median survival time, dose: 7.5 mg/kg/injection, schedule: Q04DX002 (ip), vehicle: saline); 175 % of control (endpoint: median survival time, dose: 7.5 mg/kg/injection, schedule: Q04HX004 (iv), vehicle: dextrose); 186 % of control (endpoint: median survival time, dose: 7.5 mg/kg/injection, schedule: Q04HX004 (iv), vehicle: other); 172 % of control (endpoint: median survival time, dose: 15.0 mg/kg/injection, schedule: Q04HX004 (iv), vehicle: dextrose); 204 % of control (endpoint: median survival time, dose: 15.0 mg/kg/injection, schedule: Q04HX004 (iv), vehicle: other); 191 % of control and 213 % of control (endpoint: median survival time, dose: 30.0 mg/kg/injection, schedule: Q04DX002 (ip), vehicle: saline). Also, the T/C was 226 % of control (endpoint: median survival time, dose: 30.0 mg/kg/injection, schedule: Q04HX004 (iv), vehicle: dextrose); 219 % of control (endpoint: median survival time, dose: 30.0 mg/kg/injection, schedule: Q04HX004 (iv), vehicle: other); 217 % of control (endpoint: median survival time, dose: 40.0 mg/kg/injection, schedule: Q04HX004 (iv), vehicle: other).
Turning to `CC1CNC(=S)S1` (stereo unspecified), the T/C runs as follows: under setting [1], 94 % of control; under setting [4], 97 % of control; under setting [2], 109 % of control; under setting [5], 94 % of control; under setting [3], 105 % of control; under setting [6], 101 % of control.
Consider `CC(=O)NC1=CC(=Nc2ccc(N(C)C)cc2)C=CC1=O`, for which the T/C is, setting by setting: (endpoint: mean survival time, dose: 1.25 mg/kg/injection, schedule: Q01DX009 (ip), vehicle: suspension in saline) 95 % of control and 97 % of control; (endpoint: mean survival time, dose: 2.5 mg/kg/injection, schedule: Q01DX009 (ip), vehicle: suspension in saline) 95 % of control and 103 % of control; (endpoint: mean survival time, dose: 5.0 mg/kg/injection, schedule: Q01DX009 (ip), vehicle: suspension in saline) 97 % of control and 101 % of control; (endpoint: mean survival time, dose: 10.0 mg/kg/injection, schedule: Q01DX009 (ip), vehicle: suspension in saline) 90 % of control and 97 % of control.
Regarding `O=C1N(O)C2(CCCCC2)/C(=N/O)C12CCCCC2`, the T/C runs as follows: (endpoint: mean survival time, dose: 75.0 mg/kg/injection, schedule: Q01DX001 (ip), vehicle: saline) 100 % of control; (endpoint: mean survival time, dose: 150.0 mg/kg/injection, schedule: Q01DX001 (ip), vehicle: saline) 94 % of control; (endpoint: mean survival time, dose: 300.0 mg/kg/injection, schedule: Q01DX001 (ip), vehicle: saline) 94 % of control.
For `CN1C2CCC1C(CCl)C(O)C2` (stereo unspecified), the T/C was 97 % of control under setting [7], 104 % of control under setting [8] and 101 % of control under setting [10].
As to `COc1cc(-c2ccc(N=Nc3ccc4c(S(=O)(=O)O)cc(S(=O)(=O)O)c(N)c4c3O)c(OC)c2)ccc1N=Nc1ccc2c(S(=O)(=O)O)cc(S(=O)(=O)O)c(N)c2c1O`, the T/C reads like this: (endpoint: mean survival time, dose: 6.25 mg/kg/injection, schedule: Q01DX009 (ip), vehicle: saline) 100 % of control; (endpoint: mean survival time, dose: 12.5 mg/kg/injection, schedule: Q01DX009 (ip), vehicle: saline) 100 % of control; (endpoint: mean survival time, dose: 25.0 mg/kg/injection, schedule: Q01DX009 (ip), vehicle: saline) 105 % of control.
For the compound `Cc1cccc2c(=O)c3ccccc3oc12`, the T/C is, setting by setting: under setting [9], 102 % of control; under setting [11], 102 % of control; (endpoint: mean survival time, dose: 400.0 mg/kg/injection, schedule: Q04DX003 (ip), vehicle: saline) 104 % of control.
As to `CC(C)OP(=O)(OCCO)C(Cl)Cl` (stereo unspecified), the T/C by setting is: (endpoint: mean survival time, dose: 100.0 mg/kg/injection, schedule: Q01DX001 (ip), vehicle: saline) 97 % of control; (endpoint: mean survival time, dose: 200.0 mg/kg/injection, schedule: Q01DX001 (ip), vehicle: saline) 94 % of control; (endpoint: mean survival time, dose: 400.0 mg/kg/injection, schedule: Q01DX001 (ip), vehicle: saline) 96 % of control.
Turning to `O=C(CCl)Nc1ccc([N+](=O)[O-])cc1`, the T/C (endpoint: mean survival time, dose: 400.0 mg/kg/injection, schedule: Q04DX002 (ip), vehicle: saline with Tween-80) was 87 % of control.
In the case of `CC[C@]1(O)C[C@H](OC2CC(N(C)C)C(OC3CC(O)C(O)C(C)O3)C(C)O2)c2c(cc3c(c2O)C(=O)c2c(O)ccc(O)c2C3=O)[C@H]1C(=O)OC` (stereo partly specified), the T/C (endpoint: mean survival time, dose: 0.12 mg/kg/injection, schedule: Q01DX009 (ip), vehicle: Klucel (hydroxypropylcellulose) (HPC)) was 114 % of control and 109 % of control and 110 % of control.
